The assay deals with recombinant AMPK proteins (α1β1γ1, α2β1γ1, α1(1-335), α1(1-394) or α2(1-394)). Description: Scintillation Proximity Assay (SPA), AMPK activation. It is filed as biochemical, human. Particulars: effective concentration of activator for 50% of maximal enzyme activity; 50 nM AMPK, 2 μM ATP, 2 μM biotin-SAMS, 30° C., 2 hours. The method, then:
Recombinant human AMPK α1β1γ1, α2β1γ1 or AMPK α subunit truncations α1(1-335), α1(1-394) and α2(1-394) were constructed, expressed and purified as described previously (Pang, T., Zhang, Z. S., Gu, M., Qiu, B. Y., Yu, L. F., Cao, P. R., Shao, W., Su, M. B., Li, J. Y., Nan, F. J., and Li, J. (2008). Rat liver AMPK heterotrimer enzyme was obtained from Upstate (Billerica, Mass., U.S.A.).
Scintillation Proximity Assay
Before the Scintillation Proximity Assay (SPA) assay, 200 nM recombinant AMPK proteins (α1β1γ1, α2β1γ1, α1(1-335), α1(1-394) or α2(1-394)) were fully phosphorylated as described previously (Pang et al., 2008). SPA reactions were performed in 96-well plates at a final volume of 50 μL containing 20 mM Tris-HCl pH 7.5, 5 mM MgCl2, 1 mM DTT, 2 μM biotin-SAMS, 2 μM ATP, 0.2 μCi/well [γ-^33P]ATP, and various amount of activator. Reactions were initiated by the addition of 50 nM recombinant AMPK proteins to the reaction solutions and incubated at 30° C. for 2 hours. After that, reactions were terminated by the addition of 40 μL stop solution containing 80 μg streptavidin-coated SPA beads per well, 50 mM ED TA, 0.1% Triton X-100 in PBS, pH 7.5 and incubated for 1 hour. Finally, a 160 μL suspension solution containing 2.4 M CsCl, 50 mM EDTA, and 0.1% Triton X-100 in PBS (pH 7.5) was added to the reaction solution to suspend SPA beads completely. SPA signals were determined with a Wallac MicroBeta plate counter (PerkinElmer) 30 min later for calculation of the amount of product formed. The amount of products formed in 2 hour was plotted against activator concentrations to determine the effective concentration of the activator (EC50) required for 50% of maximal enzyme activity.
On the technique in general: SPA uses beads or plates that emit light when radiolabelled molecules are held near them.
As for `O=C(NC1CCC1)c1ccc2c(c1)C1(CCCC1)CC(c1cccc(F)c1)N2` (centres unmarked) [Example 62, 2-(3-Fluoro-phenyl)-spiro(cyclopentane-1,4′-1′,2′,3′,4′-tetrahydroquinoline)-6-carboxylic acid cyclobutylamide], the EC50 (usually the concentration at which the effect is half-maximal) worked out at 1.59 µM.

In the case of `CNC(=O)c1ccc2c(c1)C1(CCCC1)CC(c1cccc(N3CCOCC3)c1)N2` (centres unmarked) [Example 63, 2-(3-Morpholin-4-yl-phenyl)-spiro(cyclopentane-1,4′-1′,2′,3′,4′-tetrahydroquinoline)-6-carboxylic acid methylamide], the EC50 came to 2.37 µM.

Consider `O=C(NC1CCC1)c1ccc2c(c1)C1(CCCC1)CC(c1cc(Cl)ccc1F)N2` (centres unmarked) [Example 64, 2-(5-Chloro-2-fluoro-phenyl)-spiro(cyclopentane-1,4′-1′,2′,3′,4′-tetrahydroquinoline)-6-carboxylic acid cyclobutylamide], for which the EC50 was found to be 7.68 µM.

`CC1(C)CC(c2cc(Cl)ccc2Cl)Nc2ccc(C(=O)NC3CCC3)cc21` (centres unmarked) [Example 66, 2-(2,5-Dichloro-phenyl)-4,4-dimethyl-1,2,3,4-tetrahydro-quinoline-6-carboxylic acid cyclobutylamide]: the EC50 worked out at 5.53 µM.

Consider `CC1(C)CC(c2cc(Cl)ccc2F)Nc2ccc(C(=O)NC3CCC3)cc21` (centres unmarked) [Example 67, 2-(5-Chloro-2-fluoro-phenyl)-4,4-dimethyl-1,2,3,4-tetrahydro-quinoline-6-carboxylic acid cyclobutylamide], for which the EC50 was 15.1 µM.

With `CC(CO)(CO)NC(=O)c1ccc2c(c1)C(C)(C)CC(c1cccc(N3CCOCC3)c1)N2` (centres unmarked) [Example 68, 4,4-Dimethyl-2-(3-morpholin-4-yl-phenyl)-1,2,3,4-tetrahydro-quinoline-6-carboxylic acid (2-hydroxy-1-hydroxymethyl-1-methyl-ethyl)-amide], the EC50 stood at 1.56 µM.

Consider `O=C(NC1CCC1)c1ccc2c(c1)C1(CCCC1)CC(c1ccc(F)c(Cl)c1)N2` (centres unmarked) [Example 69, 2-(3-Chloro-4-fluoro-phenyl)-spiro(cyclopentane-1,4′-1′,2′,3′,4′-tetrahydroquinoline)-6-carboxylic acid cyclobutylamide], for which the EC50 stood at 4.18 µM.

For the compound `CCC1(C)CC(c2ccc(F)c(Cl)c2)Nc2ccc(C(=O)NC3CCC3)nc21` (centres unmarked) [Example 70, 6-(3-Chloro-4-fluoro-phenyl)-8-ethyl-8-methyl-5,6,7,8-tetrahydro-[1,5]naphthyridine-2-carboxylic acid cyclobutylamide], the EC50 is 9.17 µM.
